# PubChem BioAssay (NCI)
# Where “and” joins values, the source holds several entries; their conditions need not be identical. Equal entries are not always repeated.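 Exposure lasted 48 hours, with cells grown in 96-well plates and compounds tested at five concentrations. GI50 marks 50% less growth. TGI: total growth inhibition.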
# Columns and labels:
# Test in all cases: NCI tumour cell line growth inhibition, 48 h
# BT-549 breast = tested on: BT-549 breast
# NCI-H460 lung = tested on: NCI-H460 lung
# MDA-N = tested on: MDA-N
# COLO 205 colon = tested on: COLO 205 colon
# SF-268 CNS = tested on: SF-268 CNS
# CAKI-1 renal = tested on: CAKI-1 renal
# NCI-H522 lung = tested on: NCI-H522 lung
# ACHN renal = tested on: ACHN renal
# SN12C renal = tested on: SN12C renal
# KM12 colon = tested on: KM12 colon
SMILES,TGI (BT-549 breast),TGI (NCI-H460 lung),TGI (MDA-N),TGI (COLO 205 colon),TGI (SF-268 CNS),TGI (CAKI-1 renal),TGI (NCI-H522 lung),TGI (ACHN renal),TGI (SN12C renal),TGI (KM12 colon),GI50 (SF-268 CNS)
O=C(NNC(=S)Nc1cccc(Cl)c1)c1cc(-c2ccccc2)nc2ccccc12,34.3 µM,39.6 µM,36.5 µM,29.2 µM,35.4 µM,43.1 µM,34.9 µM,31.8 µM,37.1 µM,49 µM,–
CCOC(=O)C(=Cc1[nH]c2ccccc2c1-c1c[nH]c2ccccc12)C(=O)OCC,33.1 µM,29.8 µM,26.5 µM,40.8 µM,30.5 µM,30.8 µM,> 100 µM,24.5 µM,29.4 µM,18 µM,–
Cc1cccc(N=NC(=O)NNc2cccc(C)c2C)c1C,> 100 µM,> 100 µM,> 100 µM,–,> 100 µM,> 100 µM,53.6 µM,95.7 µM,> 100 µM,–,–
O=c1cc(-c2ccc(F)cc2)[nH]c2ncc(Cl)cc12,> 100 µM,> 100 µM,7.91 µM,> 100 µM,> 100 µM,> 100 µM,80.4 µM,> 100 µM,> 100 µM,> 100 µM,–
O=C1/C(=C/c2ccc([N+](=O)[O-])cc2)C(=O)N(c2ccccc2)C1c1ccccc1 (stereo not drawn),> 10 µM,> 10 µM,> 10 µM,> 10 µM,> 10 µM,> 10 µM,> 10 µM,> 10 µM,> 10 µM,> 10 µM,–
O=Cc1c(C(=O)O)[nH]c(=O)[nH]c1=O,> 100 µM,> 100 µM,> 100 µM,> 100 µM,> 100 µM,> 100 µM,> 100 µM,> 100 µM,> 100 µM,> 100 µM,–
CC1=NNC(N)=N/C1=C\C(Sc1ccc(Cl)cc1)c1ccc([N+](=O)[O-])cc1 (stereo not drawn),> 100 µM,> 100 µM,> 100 µM,> 100 µM,> 100 µM,> 100 µM,> 100 µM,> 100 µM,> 100 µM,> 100 µM,–
CCN(CC)CCNc1nc2ccc([N+](=O)[O-])cc2[n+]([O-])n1,> 100 µM,56.8 µM,29.5 µM,18.6 µM,> 100 µM,> 100 µM,> 100 µM,> 100 µM,54.9 µM,> 100 µM,–
COc1cc(/C=C2\C(=O)N(c3ccccc3)C(c3ccccc3)S2(=O)=O)cc(OC)c1OC (stereo not drawn),> 100 µM,> 100 µM,48.3 µM,> 100 µM,> 100 µM,> 100 µM,> 100 µM,> 100 µM,> 100 µM,> 100 µM,–
Cc1ccc(/C=C2\CCCc3ccccc3C2=O)cc1,54.1 µM,32.5 µM,4.48 µM,18.9 µM,30.7 µM,> 100 µM,27.8 µM,> 100 µM,39.6 µM,18.2 µM,–
Cn1c2c(c3ccccc31)CC1c3c(c4ccccc4n3C)CC21 (stereo not drawn),> 100 µM,> 100 µM,> 100 µM,> 100 µM,> 100 µM,> 100 µM,> 100 µM,> 100 µM,> 100 µM,> 100 µM,–
O=C(N/N=C/c1ccccc1)c1c(-c2cccnc2)cnc2ccccc12,> 100 µM,> 100 µM,> 100 µM,> 100 µM,> 100 µM,> 100 µM,> 100 µM,> 100 µM,> 100 µM,> 100 µM,–
O=C(N/N=C\c1cccc2c([N+](=O)[O-])cccc12)Nc1ccccc1,29.3 µM,30.9 µM,32.8 µM,50.7 µM,73 µM,25.5 µM,38.4 µM,27.3 µM,18.9 µM,36.1 µM,–
OCC(O)COCn1nncc1Cn1ncc2c(SCc3ccccc3)ncnc21 (stereo not drawn),> 100 µM,–,> 100 µM,> 100 µM,41.1 µM,> 100 µM,33.1 µM,> 100 µM,> 100 µM,> 100 µM,–
CCOc1cn(C2CC(O)C(CO)O2)c(=O)[nH]c1=O (stereo not drawn),> 100 µM,> 100 µM,> 100 µM,> 100 µM,> 100 µM,> 100 µM,–,> 100 µM,> 100 µM,> 100 µM,–
Oc1ccc(-c2nc(-c3cccnc3)c(-c3ccc(Cl)cc3)[nH]2)cc1,29 µM,24 µM,26.3 µM,23.9 µM,29.6 µM,43.3 µM,23.8 µM,27.6 µM,32.6 µM,25.7 µM,–
O=C1CSC(c2cccc(Oc3ccccc3)c2)N1c1ccc(Cl)cc1 (stereo not drawn),> 100 µM,41.1 µM,63.6 µM,35.5 µM,> 100 µM,> 100 µM,49.4 µM,75 µM,> 100 µM,> 100 µM,–
COc1ccc(C2OC[C@H]3O[C@@H](OCc4ccccc4)[C@H](O)[C@@H](O)[C@@H]3O2)cc1 (stereo partly drawn),> 100 µM,> 100 µM,> 100 µM,> 100 µM,> 100 µM,> 100 µM,–,> 100 µM,> 100 µM,–,–
COCN(CCC1=CCCCC1)C(=O)OC,> 100 µM,> 100 µM,> 100 µM,> 100 µM,> 100 µM,> 100 µM,> 100 µM,> 100 µM,–,> 100 µM,–
CCOCc1nc2c(OC)cc(-c3nc4ccc(N5CCN(C)CC5)cc4[nH]3)c(OC)c2[nH]1,> 100 µM,65.1 µM,35.9 µM,38 µM,> 100 µM,81.9 µM,58.2 µM,> 100 µM,> 100 µM,> 100 µM,–
COc1ccccc1/C=C1\SC(=S)N(/C=C2\C(=O)Oc3ccccc3C2=O)C1=O,80.9 µM,–,> 100 µM,50.4 µM,> 100 µM,3.23 µM,95.7 µM,> 100 µM,–,> 100 µM,–

SMILES,TGI (BT-549 breast),TGI (NCI-H460 lung),TGI (MDA-N),TGI (COLO 205 colon),TGI (SF-268 CNS),TGI (CAKI-1 renal),TGI (NCI-H522 lung),TGI (ACHN renal),TGI (SN12C renal),TGI (KM12 colon),GI50 (SF-268 CNS)
Cc1ccc(N=Nc2c(O)ccc3cc(S(=O)(=O)O)cc(S(=O)(=O)O)c23)cc1,> 100 µM,> 100 µM,> 100 µM,> 100 µM,> 100 µM,> 100 µM,> 100 µM,> 100 µM,> 100 µM,> 100 µM,–
CCOC(=O)N/N=C(/N)c1cccc([N+](=O)[O-])c1,> 100 µM,> 100 µM,> 100 µM,> 100 µM,> 100 µM,> 100 µM,> 100 µM,> 100 µM,> 100 µM,> 100 µM,–
N=C(N)c1ccc(C(NC(=O)CNS(=O)(=O)c2ccc3ccccc3c2)P(=O)(Oc2ccccc2)Oc2ccccc2)cc1 (stereo not drawn),66.2 µM,> 100 µM,> 100 µM,> 100 µM,> 100 µM,> 100 µM,> 100 µM,> 100 µM,> 100 µM,> 100 µM,–
O=C(O)Cc1cccc2c(=O)c3ccccc3oc12,> 100 µM,> 100 µM,> 100 µM,> 100 µM,> 100 µM,> 100 µM,> 100 µM,> 100 µM,> 100 µM,> 100 µM,–
COC[C@@H](C[C@H]1O[C@@](O)([C@H](O)[C@@H]2C[C@H](OC)[C@@H](O)CC/C=C(C)/C=C/[C@@H](O[C@@H]3O[C@@H](C)[C@H](OC)[C@@H](O)[C@@H]3O)[C@H](C)/C=C(C)/C=C(C)/C=C(\C)C(=O)O2)[C@H](C)[C@@H](O)[C@H]1C)O[C@H]1C[C@](C)(O)[C@@H](O[C@H]2C[C@@H](OC)[C@H](O)[C@@H](C)O2)C(C)O1 (stereo partly drawn),> 100 µM,> 100 µM,> 100 µM,> 100 µM,> 100 µM,> 100 µM,–,> 100 µM,> 100 µM,> 100 µM,–
O=C1C(CN2CCCCC2)CCC1CN1CCCCC1 (stereo not drawn),34 µM,> 100 µM,22.2 µM,40.7 µM,> 74.8 µM,25 µM,11.1 µM,47.5 µM,45.5 µM,> 69.7 µM,–
CC(=O)OCC12C(=O)C[C@@H](C)C3(CC(c4ccoc4)OC3=O)C1CCC(OC(C)=O)C21CO1 (stereo partly drawn),> 100 µM,> 100 µM,> 100 µM,> 100 µM,> 100 µM,> 100 µM,> 100 µM,> 100 µM,> 100 µM,> 100 µM,–
COc1cc(CNCc2cc(OC)c(OC)c(OC)c2)cc(OC)c1OC,> 10 µM,> 10 µM,> 10 µM,> 10 µM,> 10 µM,> 10 µM,> 6.46 µM,> 10 µM,> 10 µM,> 10 µM,–
C(=Nc1ccc(-c2nc3ccccc3[nH]2)cc1)c1cccs1,86.4 µM,> 100 µM,> 100 µM,> 100 µM,> 100 µM,> 100 µM,> 100 µM,> 100 µM,> 100 µM,> 100 µM,–
CCOC(=O)c1cc(C(O)P2(=O)N(CC(C)(C)C)[C@@H]3CCCC[C@H]3N2CC(C)(C)C)cn1C(=O)OC(C)(C)C (stereo partly drawn),31.9 µM,–,28 µM,31.4 µM,38.4 µM,51 µM,31.1 µM,> 100 µM,27.5 µM,29.2 µM,–
C[N+](C)(C)CC1CCCCCCCCCCC1=O (stereo not drawn),> 100 µM,> 100 µM,> 100 µM,> 100 µM,> 100 µM,> 100 µM,> 100 µM,> 100 µM,> 100 µM,> 100 µM,–
c1ccc2c(c1)ccn2CCc1c[nH]c2ccccc12,> 10 µM,> 10 µM,> 10 µM,> 10 µM,> 10 µM,> 10 µM,> 10 µM,> 10 µM,> 10 µM,> 10 µM,–
COc1ccc(C(=C(Cl)c2ccccc2)c2ccc(OC)cc2)cc1,> 100 µM,> 100 µM,> 100 µM,> 100 µM,> 100 µM,> 100 µM,> 100 µM,> 100 µM,> 100 µM,> 100 µM,–
Nc1cc2[nH]c(=O)c(=O)[nH]c2cc1N,> 100 µM,> 100 µM,> 100 µM,> 100 µM,> 100 µM,> 100 µM,> 100 µM,> 100 µM,> 100 µM,> 100 µM,–
CCOC(=O)c1nc2ccc(C(F)(F)F)cc2nc1NCc1cc(OC)c(OC)c(OC)c1,> 100 µM,–,76 µM,73.4 µM,> 100 µM,> 100 µM,> 100 µM,> 100 µM,> 100 µM,> 100 µM,–
Cc1ccc([N+](=O)[O-])cc1S(=O)(=O)Nc1ccc(C2=NNC(c3ccccc3)C2)cc1 (stereo not drawn),52 µM,37.6 µM,92.7 µM,41.4 µM,> 100 µM,53.6 µM,57 µM,54.2 µM,59.2 µM,34.4 µM,–
Cc1ccc(SCC(CF)OC(C)n2cnc3c(=O)[nH]c(N)nc32)cc1 (stereo not drawn),> 100 µM,> 100 µM,> 100 µM,> 100 µM,> 100 µM,> 100 µM,> 100 µM,> 100 µM,> 100 µM,> 100 µM,–
C=CC(CCc1ccc(C(=O)OCC)cc1)c1c(N)nc(N)[nH]c1=O (stereo not drawn),> 100 µM,> 100 µM,> 100 µM,> 100 µM,> 100 µM,> 100 µM,–,–,> 100 µM,> 100 µM,–
Cc1cn(C2CC(N(O)Cc3ccccc3)C(CO[Si](C)(C)C(C)(C)C)O2)c(=O)[nH]c1=O (stereo not drawn),34.7 µM and 30 µM,33.3 µM and 32.2 µM,35.1 µM and 31.7 µM,35.8 µM and 32.6 µM,> 100 µM and 31 µM,76.1 µM and 31.1 µM,32.2 µM,98.1 µM and 31.4 µM,30.6 µM and 29.7 µM,51.7 µM and 31 µM,34.6 µM and 16.7 µM
CON(C)C(=O)CNC(=O)OCC1c2ccccc2-c2ccccc21,> 100 µM,> 100 µM,> 100 µM,> 100 µM,> 100 µM,–,> 100 µM,> 100 µM,> 100 µM,> 100 µM,–
O=C(O)c1ccc([N+](=O)[O-])c2cc3cnccc3nc12,33.5 µM,> 100 µM,51.3 µM,40.4 µM,–,–,32.4 µM,–,32.8 µM,44.4 µM,–
